“Also recorded” adds a separate entry of the source.
Tests used:
[1] = test system: FcγRIIa-stimulated platelets; test: Rap1 activation after FcγRIIa stimulation; assay type: cell-based, human; details: ML355 pre-treatment
From the text: (§1) Preparation of washed human platelets: Prior to blood collection written informed consent was obtained from all volunteers. Washed platelets were isolated from the blood of healthy volunteers as previously described (14). Washed platelets were resuspended in tyrodes buffer at 3.0×10^8 platelets/mL unless otherwise indicated.
(§2) FcγRIIa-mediated platelet activation: FcγRIIa-mediated platelet activation was initiated by two distinct models; either 1) FcγRIIa antibody cross-linking or 2) CD9 monoclonal antibody stimulation. To cross-link FcγRIIa, washed platelets were incubated with IV.3, an FcγRIIa mouse monoclonal antibody, for one minute followed by the addition of a goat anti-mouse (GAM) IgG antibody to cross-link FcγRIIa. The concentration of FcγRIIa cross-linking antibodies used for each experiment is indicated in the text. Alternatively, washed human platelets were stimulated with an anti-CD9 monoclonal antibody to activate FcγRIIa mediated signaling. Due to inter-individual variability in anti-CD9 response, a range of anti-CD9 concentration (0.25-1 μg/ml) was used to achieve an aggregation of EC80. In studies using the 12-LOX inhibitor (ML355), washed platelets were incubated with either ML355 (20 μM), or DMSO (vehicle control) for 15 minutes prior to FcγRIIa stimulation. […]

washed human platelets [2] = test: PAR4-AP-induced platelet aggregation; assay type: cell-based
Procedure: Blood was centrifuged at 200 g for 13 min at room temperature.

washed human platelets [3] = test: FcγRIIa-mediated platelet aggregation; assay type: cell-based; details: ML355 20 μM, 15 minutes; anti-CD9 stimulation or IV.3 + GAM cross-linking
From the text: as §1
as §2, with “EC80.” for “EC80. In studies using the 12-LOX inhibitor (ML355), washed platelets were incubated with either ML355 (20 μM), or DMSO (vehicle control) for 15 minutes prior to FcγRIIa stimulation.”
Platelet aggregation: Platelet aggregation was measured with a lumi-aggregometer (Chronolog Corp, Model 700D) under stirring conditions at 37° C.

[4] = test system: FcγRIIa-stimulated platelets; test: PKC activation assay; assay type: cell-based, human
Procedure: (§3) FcγRIIa-mediated platelet activation: FcγRIIa-mediated platelet activation was initiated by two distinct models; either 1) FcγRIIa antibody cross-linking or 2) CD9 monoclonal antibody stimulation. To cross-link FcγRIIa, washed platelets were incubated with IV.3, an FcγRIIa mouse monoclonal antibody, for one minute followed by the addition of a goat anti-mouse (GAM) IgG antibody to cross-link FcγRIIa. The concentration of FcγRIIa cross-linking antibodies used for each experiment is indicated in the text. Alternatively, washed human platelets were stimulated with an anti-CD9 monoclonal antibody to activate FcγRIIa mediated signaling. Due to inter-individual variability in anti-CD9 response, a range of anti-CD9 concentration (0.25-1 μg/ml) was used to achieve an aggregation of EC80. In studies using the 12-LOX inhibitor (ML355), washed platelets were incubated with either ML355 (20 μM), or DMSO (vehicle control) for 15 minutes prior to FcγRIIa stimulation.
PKC activation assay: Washed platelets were stimulated by FcγRIIa antibody cross-linking under stirring conditions (1100 rpm) in an aggregometer at 37° C. Reactions were stopped by the addition of 5X× Laemmli sample buffer at the indicated times. As a positive control platelets were treated with PMA ([…]), a direct PKC agonist, for one minute. […]

in vivo = details: male, CD1, mouse
[5] = test system: FcγRIIa-stimulated platelets; test: PLCγ2 phosphorylation after FcγRIIa cross-linking; assay type: cell-based, human; details: ML355 (20 μM); 15 and 30 seconds
Procedure: as §3
PLCγ2 phosphorylation: Washed human platelets were adjusted to 5×10^8 platelets/mL and stimulated in an aggregometer by antibody cross-linking of FcγRIIa and lysed at designated times with 5× reducing buffer to stop the reaction. Samples were separated on a 7.5% SDS-PAGE gel. Antibodies to PLCy2 and phospho-Y759 PLCy2, a marker of PLCy2 activation, were used to evaluate the relative levels of total and active PLCy2, respectively.

[6] = test system: FcγRIIa-stimulated platelets; test: Syk phosphorylation after FcγRIIa cross-linking; assay type: cell-based, human; details: ML355 (20 μM)
Procedure: FIGS. 15A-15B show the role of 12-LOX in regulating the FcγRIIa signaling complex. Washed human platelets were pre-treated with ML355 (20 μM) or vehicle control prior to IV.3 and GAM stimulation. (FIG. 15A) Immunoprecipitation of FcγRIIa at 15, 30, and 60 seconds post crosslinking and measured for phosphorylation via Western blot. (FIG. 15B) Platelets were lysed following FcγRIIa cross-linking in the presence of ML355 or DMSO were immunoblotted for active (pY323) and total Syk.
Phosphorylation of FcγRIIa results in recruitment and activation of the tyrosine kinase Syk which is crucial for the formation of the LAT signalosome. The phosphorylation of Syk was measured following FcγRIIa stimulation of platelets in the presence or absence of ML355. The degree of Syk phosphorylation in response to FcγRIIa cross-linking in the presence of ML355 was varied in the subjects tested and may be due to inter-individual variability. […] To assess if 12-LOX regulates PLCy2 activation downstream of FcγRIIa, PLCy2 phosphorylation was measured in washed human platelets in the presence or absence of ML355. Platelets stimulated by FcγRIIa antibody cross-linking were phosphorylated within 15 seconds following stimulation. […]

[7] = test system: FcγRIIa-stimulated platelets; test: Calcium mobilization after FcγRIIa cross-linking; assay type: cell-based, human; details: ML355 (20 μM); compared to DMSO treated platelets
Procedure: as §3
Calcium mobilization: Intracellular calcium release was measured as previously described. […] Platelets were stimulated by FcγRIIa antibody cross-linking and fluorescence intensity was measured in real-time by flow cytometry. Data is reported as the fold change in the fluorescence intensity comparing maximum fluorescence intensity relative to fluorescence intensity prior to platelet stimulation.

[8] = Parallel Artificial Membrane Permeability Assay (PAMPA); details: PAMPA at pH 7.4
[9] = PBS buffer (pH 7.4) solubility; assay type: physicochemical; details: PBS buffer, pH 7.4, aqueous buffer
[10] = male, CD1, mouse, in vivo, intravenous, 3 mpk
[11] = male, CD1, mouse, in vivo, iv, 3 mg/kg
[12] = male, CD1, mouse, in vivo, po, 30 mg/kg

SMILES: COc1cccc(CNc2ccc(S(=O)(=O)Nc3nc4ccccc4s3)cc2)c1O [Compound 35, N-(benzo[d]thiazol-2-yl)-4-((2-hydroxy-3-methoxybenzyl)amino)benzenesulfonamide]
- Rap1 activation [1]: failed to activate Rap1
- PAR4-AP induced platelet aggregation (in words) (washed human platelets [2]): significantly reduce PAR4-AP induced platelet aggregation
- platelet aggregation at 10 μM (washed human platelets [2]; 10 μM, PAR4-AP): did not inhibit platelet aggregation
- FcγRIIa-mediated platelet aggregation (washed human platelets [3]): attenuated FcγRIIa-mediated platelet aggregation; also recorded: significantly attenuated aggregation
- PKC activation ([4]; ML355 (20 μM), 30 and 60 seconds, FcγRIIa cross-linking): significant decrease in PKC activation
- PKC activation by PMA ([4]; PMA, a direct PKC activator): no difference in its ability to activate PKC
- half-life (in vivo): 2.9 h
- PLCγ2 phosphorylation [5]: attenuated PLCy2 phosphorylation at 15 and 30 seconds
- Syk phosphorylation [6]: attenuation of Syk phosphorylation in the presence of ML355 was minor
- time remaining over IC50 value (In Vivo PK (Mouse); 30 mpk dosing): over 12 hours
- % F (In Vivo PK (Mouse); PO, 30 mpk): 19.8%
- Vd (In Vivo PK (Mouse); [10]): 0.55 L/kg
- clearance (In Vivo PK (Mouse); [10]): 3.4 mL/min/kg
- AUC(0-inf) (In Vivo PK (Mouse); [11]): 34 µM·h
- Cmax (In Vivo PK (Mouse); [11]): 112 µM
- Vd (In Vivo PK (Mouse); [11]): 0.55 L/kg
- clearance (In Vivo PK (Mouse); [11]): 3.4 mL/min/kg
- half-life (In Vivo PK (Mouse); [11]): 3.4 h
- AUC(0-inf) (In Vivo PK (Mouse); [12]): 67 µM·h
- Cmax (In Vivo PK (Mouse); [12]): 38 µM
- bioavailability (In Vivo PK (Mouse); [12]): ~20%
- half-life (In Vivo PK (Mouse); [12]): 2.9 h
- intracellular Ca2+ release [7]: decrease in intracellular Ca^2+
- permeability (1 × 10^−6 cm/s) [8]: 394^c 1 × 10^−6 cm/s
- solubility [9]: < 5 µg/mL

From US10752581B2, “4-((2-hydroxy-3-methoxybenzyl)amino)benzenesulfonamide derivatives as potent and selective inhibitors of 12-lipoxygenase” (Eastern Virginia Medical School, priority 2013, dated 2020)
